PubChem BioAssay (NCI)
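Results reflect a 48-hour exposure of cells in 96-well plates to compound at five concentrations. TGI: total growth inhibition.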

Legend:
Assay in all cases: DTP human tumour cell line panel, 48 h
[1] = system: A549 NSCLC
[2] = system: ACHN renal
[3] = system: BT-549 breast
[4] = system: CAKI-1 renal
[5] = system: CCRF-CEM leukemia
[6] = system: COLO 205 colon
[7] = system: DU-145 prostate
[8] = system: EKVX NSCLC
[9] = system: HCC-2998 colon
[10] = system: HCT-116 colon
[11] = system: HCT-15 colon
[12] = system: HL-60(TB) leukemia
[13] = system: HOP-62 NSCLC
[14] = system: HOP-92 NSCLC
[15] = system: HS 578T breast
[16] = system: HT29 colon
[17] = system: IGROV1 ovarian
[18] = system: K-562 leukemia
[19] = system: KM12 colon
[20] = system: LOX IMVI melanoma
[21] = system: M14 melanoma
[22] = system: MALME-3M melanoma
[23] = system: MCF7 breast
[24] = system: MDA-MB-231 breast
[25] = system: MDA-MB-435
[26] = system: MDA-N
[27] = system: MOLT-4 leukemia
[28] = system: NCI-H226 lung
[29] = system: NCI-H23 lung
[30] = system: NCI-H522 lung
[31] = system: NCI/ADR-RES ovarian
[32] = system: OVCAR-3 ovarian
[33] = system: OVCAR-4 ovarian
[34] = system: OVCAR-5 ovarian
[35] = system: OVCAR-8 ovarian
[36] = system: PC-3 prostate
[37] = system: RPMI-8226 leukemia
[38] = system: RXF 393 renal
[39] = system: SF-268 CNS
[40] = system: SF-295 CNS
[41] = system: SF-539 CNS
[42] = system: SK-MEL-2 melanoma
[43] = system: SK-MEL-28 melanoma
[44] = system: SK-MEL-5 melanoma
[45] = system: SK-OV-3 ovarian
[46] = system: SN12C renal
[47] = system: SNB-19 CNS
[48] = system: SNB-75 CNS
[49] = system: SR leukemia
[50] = system: SW-620 colon
[51] = system: T-47D breast
[52] = system: TK-10 renal
[53] = system: U251 CNS
[54] = system: UACC-257 melanoma
[55] = system: UACC-62 melanoma
[56] = system: UO-31 renal
[57] = system: 786-0 renal
[58] = system: NCI-H460 lung

Measured: TGI

C=CC(=O)NC(O)(C(=O)OCC)C(F)(F)F (centres undefined)
not listed: [57] | [58]
> 100 µM: all other assays above

O=C(O)c1ccccc1CC1Cc2ccccc2C1
> 100 µM: all assays above
